SMILES strings stand for the structures. Activity calls are given as the source filed them. The rule behind the calls is not given here.

The target in data set [1] is T1, Low molecular weight protein-tyrosine phosphatase A (Mycobacterium tuberculosis, UniProt P9WIA1).
T1 sequence (P9WIA1 whole entry): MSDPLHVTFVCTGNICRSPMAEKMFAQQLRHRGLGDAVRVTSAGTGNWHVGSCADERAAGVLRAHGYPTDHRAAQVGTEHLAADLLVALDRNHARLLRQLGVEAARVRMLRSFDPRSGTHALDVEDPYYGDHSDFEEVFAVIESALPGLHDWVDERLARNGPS
Briefly: Inhibition of Mycobacterium tuberculosis PTPA-mediated pNPP hydrolysis.

For data set [2], the target named is T2, Low molecular weight protein-tyrosine phosphatase A (Mycobacterium tuberculosis) (UniProt P9WIA1).
T2 sequence (whole entry): T1 sequence (P9WIA1 whole entry)
The experiment in a line: Competitive inhibition of Mycobacterium tuberculosis PTPA by Lineweaver-Burke plot analysis.

Data set [3] addresses T3, Phosphotyrosine-protein phosphatase PTPB (Mycobacterium tuberculosis) (UniProt P96830).
T3 sequence (whole entry): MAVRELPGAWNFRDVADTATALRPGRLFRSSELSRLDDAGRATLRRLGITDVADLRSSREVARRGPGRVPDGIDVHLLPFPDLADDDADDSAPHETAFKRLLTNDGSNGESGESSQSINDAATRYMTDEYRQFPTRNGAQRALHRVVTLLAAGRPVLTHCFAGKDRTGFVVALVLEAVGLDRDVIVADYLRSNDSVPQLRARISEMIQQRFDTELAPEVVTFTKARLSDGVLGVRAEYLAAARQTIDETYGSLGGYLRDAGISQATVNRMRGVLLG
Briefly: Inhibition of Mycobacterium tuberculosis PTPB at 100 uM after 20 mins by ELISA. In general terms: ELISA stands for enzyme-linked immunosorbent assay.

In data set [4] the target is T4, Tyrosine-protein phosphatase non-receptor type 1 (Homo sapiens, UniProt P18031).
T4 sequence (P18031 whole entry): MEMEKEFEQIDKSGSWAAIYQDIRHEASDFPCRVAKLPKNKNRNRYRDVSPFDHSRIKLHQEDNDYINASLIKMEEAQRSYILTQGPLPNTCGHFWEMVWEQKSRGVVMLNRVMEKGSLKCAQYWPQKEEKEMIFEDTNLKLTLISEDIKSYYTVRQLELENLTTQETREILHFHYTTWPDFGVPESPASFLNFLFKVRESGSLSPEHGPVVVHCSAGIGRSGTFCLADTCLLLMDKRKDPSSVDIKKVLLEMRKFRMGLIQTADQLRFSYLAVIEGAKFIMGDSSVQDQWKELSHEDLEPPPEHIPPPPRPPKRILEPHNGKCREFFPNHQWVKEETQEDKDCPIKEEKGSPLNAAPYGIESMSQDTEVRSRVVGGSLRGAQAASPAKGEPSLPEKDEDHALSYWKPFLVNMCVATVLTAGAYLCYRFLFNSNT
Briefly: Inhibition of human PTP1B.

Data set [5] relates to THP-1. Briefly: Cytotoxicity against human THP1 cells at 40 uM after 24 hrs by flow cytometry. In kind it is cell-based. To be noted: thp-1, 24 h. In general terms: In flow cytometry, cells or beads pass a laser one at a time.
For data set [6], the system named is Mycobacterium tuberculosis. Briefly: Antibacterial activity against Mycobacterium tuberculosis H37Rv infected in human THP1 cells assessed as reduction of bacterial burden at 20 uM after 48 hrs. To be noted: for inhibition: THP-1; for inhibition at 20 µM: THP-1, 48 h. The class given is functional.
For data set [7], the system named is Mycobacterium tuberculosis. Briefly: Antibacterial activity against Mycobacterium tuberculosis H37Rv infected in human THP1 cells assessed as reduction of bacterial burden at 40 uM after 96 hrs. The class given is functional. To be noted: THP-1, 96 h.
Data set [8] relates to THP-1. The experiment in a line: Cytotoxicity against human THP1 cells at 4 uM after 24 hrs by flow cytometry. The class given is cell-based. To be noted: thp-1, 24 h.
Data set [9] has as its system Mycobacterium tuberculosis. Briefly: Antibacterial activity against Mycobacterium tuberculosis H37Rv infected in human THP1 cells assessed as reduction of bacterial burden at 10 uM after 24 hrs. In kind it is functional, organism-based. To be noted: THP-1.
Data set [10] has as its target T5, Phosphotyrosine-protein phosphatase PTPB (Mycobacterium tuberculosis, UniProt P96830).
T5 sequence (P96830 whole entry): T3 sequence (whole entry)
The experiment in a line: Inhibition of N-terminal histidine-tagged Mycobacterium tuberculosis PTPB expressed in Escherichia coli BL21 (DE3) after 45 mins by fluorescence assay.

Data set [11] addresses T1, Low molecular weight protein-tyrosine phosphatase A. The experiment in a line: Inhibition of Mycobacterium tuberculosis PTPA after 20 mins by ELISA.
The target of data set [12] is T2, Low molecular weight protein-tyrosine phosphatase A (Mycobacterium tuberculosis). The experiment in a line: Inhibition of Mycobacterium tuberculosis PTPA-mediated dephosphorylation of VPS33B assessed as increase in phosphorylated VPS33B level after 15 mins by scintillation counting.

As a reminder, the Ki is a measure of affinity in units of concentration, obtained from inhibition or displacement. A higher Ki goes with lower affinity. Broadly, the inhibition is the relative decrease from the control value, in per cent. Usually IC50 stands for the concentration that inhibits the measured activity by half. A lower IC50 goes with higher potency. Take `COc1ccc(C(=O)/C=C/c2ccc3ccccc3c2)cc1OC`: in data set [1], the Ki came out at 4.9 µM. In [2], the inhibition result is “Active”. For the same compound, the inhibition entry in data set [3] and in data set [6] was “inactive” in each case. For the same compound, the IC50 in [4] was 1260 µM. The compound also displayed an Activity in data set [5] of 1.6%. Further, the inhibition at 40 µM in data set [7] is 40%.
In [1], `COc1ccc(OC)c(C(=O)/C=C/c2cccc3ccccc23)c1` displayed a Ki of 21.3 µM. For the same compound, the inhibition entry in data set [2] was “Active”. Moreover, the inhibition entry in data set [3] and in data set [9] was “inactive” throughout. In data set [4], this compound yielded an IC50 of 214 µM. Besides, the Activity in data set [5] is listed as 77.8%; in data set [8], 0.9%. For the same compound, the inhibition at 20 µM in data set [6] is 77%. In addition, the inhibition at 40 µM in data set [7] came to 90%.
Regarding `NC1=S2C=CC(S(N)(=O)=O)=C2C(=O)C1=O` (configuration not stated), in data set [10], the IC50 came out at 440 nM.
In data set [1], `COc1ccc(OC)c(C(=O)/C=C/c2ccc3ccccc3c2)c1` came in with a Ki of 5.4 µM. In [2], the inhibition result is “Active”. In data set [3], the inhibition result was “inactive”. This compound also displayed an IC50 in data set [4] of 145 µM. Also, the Activity is given as 83.1% in data set [5] and 1.3% in [8]. In data set [6], the inhibition at 20 µM was determined as 50%. The inhibition at 40 µM in data set [7] amounted to 90%.
On to `COc1cc(C(=O)/C=C/c2ccc3ccccc3c2)ccc1O`, for which the figures for the IC50 in [11] and in data set [4] were 53.7 µM and 123 µM, respectively. In addition, in [1], the affinity, expressed as Ki, was 17.9 µM. Further, the inhibition entry in [2] is “Active”. In addition, the inhibition result in data set [3] and in data set [6] was “inactive” throughout. For the same compound, the Activity in [5] was 10.5%; in [8], 0.9%. In addition, the inhibition at 40 µM in data set [7] was 80%.
`O=C(/C=C/c1cccc2ccccc12)c1ccccc1O` gave a Ki in data set [1] of 9.1 µM. The inhibition entry in data set [2] was “Active”. Besides, the inhibition result in data set [3] was “inactive”. The same compound came in with a half-inhibitory concentration (IC50) in data set [4] of 158 µM. In data set [5], this compound registered an Activity of 2%. The inhibition at 20 µM in [6] is 50%. Moreover, the inhibition at 40 µM in data set [7] was 77%. Also, in [12], the inhibition entry was “Dose-dependent effect”.

(Values after ChEMBL document CHEMBL1165932, “Inhibition of Mycobacterium tuberculosis tyrosine phosphatase PtpA by synthetic chalcones: kinetics, molecular modeling, toxicity and effect on growth” (Bioorg Med Chem, 2010).)
